Test results reported in US9145376B2, “Quinazolinone inhibitors of dynein” (The Rockefeller University, priority 2011, dated 2015).

Columns and labels:
[1] = test system: primary cilia of Shh-EGFP cells; assay: Quantitative assessment of ciliogenesis (Arl13b staining, cilia size); format: cell-based; details: 24 hours, read-out: Primary cilia size (percent of DMSO control at a 30 μM dose)
Experimental: Shh-EGFP cells [J. Hyman et al., Proc. Natl. Acad. Sci. U.S.A., (2009)], an NIH-3T3-based cell line containing a stably integrated Gli-responsive enhanced green fluorescent protein reporter, were maintained in DMEM containing 10% calf serum, 100 U/mL penicillin, and 0.1 mg/mL streptomycin. The cells were seeded into 24-well plates containing poly-D-lysine-coated 12-mm glass coverslips at a density of 30,000 cells/well and cultured for 36 hours. The cells were transferred into DMEM containing 0.5% calf serum, the antibiotics described above, and either individual compounds at a 30 μM concentration or 0.3% DMSO. After being cultured for another 24 hours, the cells were fixed in PBS containing 4% paraformaldehyde for 10 minutes at room temperature, washed 3×5 minutes with PBS, permeabilized with PBS containing 0.3% Triton X-100 for 5 minutes, and blocked overnight at 4° C. with PBS containing 5% normal goat serum, 0.1% Triton X-100, and 0.05% sodium azide. The coverslips were then incubated for 90 minutes at room temperature with blocking buffer containing rabbit polyclonal anti-Arl 13b antibody (1:3000 dilution), washed 4×5 minutes with PBS containing 0.1% Triton X-100, and incubated for 60 minutes with blocking buffer containing Alexa Fluor 488-conjugated goat polyclonal anti-rabbit IgG antibody (1:300 dilution; Invitrogen, A-11034). Following this secondary antibody incubation, nuclei were stained by incubating the cells 2×10 minutes with PBS containing 0.1% Triton X-100 and […] 4′,6-diamidino-2-phenylindole (DAPI) and washing them 2×5 minutes with PBS. The coverslips were subsequently mounted onto slides using Prolong Gold Antifade Reagent (Invitrogen) and imaged using an HC Plan Apochromat CS 20×/0.70 NA oil immersion objective on a Leica DMI6000B compound microscope equipped with a Photometric CoolSNAP HQ CCD camera and Metamorph software (Molecular Devices). Images of Arl13b staining in DMSO-treated cells were manually examined to establish a minimum threshold value for cilia staining intensity. ImageJ software was then used to define objects consisting of two or more adjacent pixels with a signal intensity equal to or greater than this threshold value, and the total object area within an individual image was used to estimate the total pixel area of primary cilia. Corresponding images of DAPI staining were processed in parallel using CellProfiler software to establish the number of nuclei per image. The average cilia size per cell within an individual image was then determined by dividing the total ciliary pixel area by the number of nuclei. Ten individual images, each containing approximately 150 cells. were used to quantify the average cilia size for each experimental condition.
Shh-EGFP cells, an NIH-3T3-based cell line containing a stably integrated Gli-responsive enhanced green fluorescent protein reporter, were maintained in DMEM containing 10% (v/v) calf serum, 100 U/mL penicillin, and 0.1 mg/mL streptomycin. The cells were seeded into 24-well plates containing poly-D-lysine-coated 12-mm glass coverslips at a density of 30,000 cells/well and cultured for 36 hours. The cells were transferred into DMEM containing 0.5% (v/v) calf serum, the antibiotics described above, and either individual dihydroquinazolinones at a 30 μM concentration or an equivalent amount of DMSO vehicle (0.3%, v/v). After being cultured for another 24 hours, the cells were fixed in PBS containing 4% (w/v) paraformaldehyde for 10 min at room temperature, washed 3×5 min with PBS, permeabilized with PBS containing 0.3% (v/v) Triton X-100 for 5 min, and blocked overnight at 4° C. with PBS containing 5% (v/v) normal goat serum, 0.1% (v/v) Triton X-100, and 0.05% (w/v) sodium azide. […]

[2] = test system: ciliary Gli2 in Shh-EGFP cells; assay: Quantitative assessment of Hh ligand-dependent Gli2 trafficking; format: cell-based; details: 30 μM, 4 hours; for basal Gli2 concentrations in the primary cilium: without Shh-N; for Basal and Shh-N-induced levels of ciliary Gli2: with or without 10% Shh-N-conditioned medium
Experimental: Shh-EGFP cells were seeded into 24-well plates containing poly-D-lysine-coated 12-mm glass coverslips at a density of 65,000 cells/well and cultured for 24 hours in DMEM containing 10% calf serum, 100 U/mL penicillin, and 0.1 mg/mL streptomycin. The cells were then transferred into DMEM containing 0.5% calf serum and the antibiotics described above for 16 hours to promote primary cilia formation. The cells were next transferred into DMEM containing 0.5% calf serum, antibiotics, and either individual compounds at a 30 μM concentration or 0.3% DMSO. Each compound or vehicle treatment was conducted in the presence or absence of 10% Shh-N-conditioned medium, and the cells were cultured under these conditions for 4 hours. The cells were subsequently fixed in PBS containing 4% paraformaldehyde for 10 minutes at room temperature, washed 3×5 minutes in PBS containing 50 mM glycine, permeabilized in PBS containing 0.3% Triton X-100 […], and then blocked overnight at 4° C. in PBS containing 5% normal donkey serum, 0.1% Triton X-100, and 0.05% sodium azide. After blocking was complete, the coverslips were incubated in blocking buffer containing rabbit polyclonal anti-Arl13b antibody (1:3000 dilution), goat polyclonal anti-Gli2 antibody (1:50 dilution; R & D Systems, AF3635), and mouse monoclonal anti-γ-tubulin (1:200 dilution; Sigma-Aldrich, T5326) for 90 minutes at room temperature. The cells were then washed 4×5 minutes with PBS containing 0.1% Triton X-100 and incubated in blocking buffer containing DyLight 488-conjugated donkey polyclonal anti-goat IgG antibody (3 μg/mL; Jackson ImmunoResearch, 705-485-147), DyLight 594-conjugated donkey polyclonal […] IgG antibody (3 μg/mL; Jackson ImmunoResearch, 715-515-151), and DyLight 649-conjugated donkey polyclonal […] IgG antibody (3 μg/mL; Jackson ImmunoResearch, 711-495-152) for 60 minutes. Following, this secondary antibody incubation, nuclei were stained by incubating the cells 2×10 minutes with PBS containing 0.1% Triton X-100 and 0.5 μg/mL DAPI and washing them 2×5 minutes with PBS. The coverslips were subsequently mounted onto slides using Prolong Gold Antifade Reagent (Invitrogen) and imaged using a Plan Apochromat 63×/1.4 NA oil immersion objective on a Zeiss Axio1mager Z1 upright microscope equipped with an LSM700 laser scanning confocal head. Ciliary Gli2 levels were quantified by determining total pixel intensity within a 0.69 μm-diameter circle at the distal tip of the axoneme and subtracting background fluorescence in an adjacent region of equivalent size. At least 25 cilia were analyzed to determine the average ciliary Gli2 level for each experimental condition.

Row | Structure (SMILES) | activity at 30 µM [1] | basal Gli2 concentrations in the primary cilium [2] | Basal and Shh-N-induced levels of ciliary Gli2 [2]
1 | N#C/C(C(=O)c1ccc(Cl)cc1Cl)=C1\NC(=O)c2ccccc2N1 [Example 1, 3-(2,4-dichlorophenyl)-3-oxo-2-(4-oxo-3,4-dihydroquinazolin-2(1H)-ylidene)propanenitrile] | 27% | increased basal Gli2 concentrations in this signaling organelle to levels comparable to that induced by Shh-N | 
2 | N#C/C(C(=O)c1ccc(Cl)cc1)=C1\NC(=O)c2ccccc2N1 [Example 2, 3-(4-chlorophenyl)-3-oxo-2-(4-oxo-3,4-dihydroquinazolin-2(1H)-ylidene)propanenitrile] | 74% |  | unchanged
3 | N#C/C(C(=O)c1ccccc1)=C1\NC(=O)c2ccccc2N1 [Example 16, 3-oxo-2-(4-oxo-3,4-dihydroquinazolin-2(1H)-ylidene)-3-phenylpropanenitrile] | 95% |  | unchanged
4 | N#C/C(C(=O)c1ccc(Cl)cc1Cl)=C1\NC(=O)c2ccc(Cl)cc2N1 [Example 31, 2-(7-chloro-4-oxo-3,4-dihydroquinazolin-2(1H)-ylidene)-3-(2,4-dichlorophenyl)-3-oxo-propanenitrile] | 7% | increased basal Gli2 concentrations in this signaling organelle to levels comparable to that induced by Shh-N | 
